The values that follow come from patent US12350270B2, “Antimalarial agents” (Merck Sharp & Dohme LLC, priority 2019, dated 2025).

By EC50 is commonly meant the concentration that produces a half-maximal response. Low readings indicate greater potency, high ones weaker potency.

The first test deals with parasites (ring stage, in human red blood cell culture). Put plainly: Parasite LDH growth assay (antiparasite potency, Parasite Assay). Type of test: cell-based, Plasmodium falciparum. The following applies: 0.7% rings, 2% haematocrit, 72 hours at 37° C., LDH readout of parasite growth. In outline:
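Growth was read by an LDH assay after a freeze–thaw cycle (−80 °C overnight, 4 h thaw at RT). Before that, parasites grew with compound for 72 h at 37 °C under gassed, humidified conditions. The input was a ring-stage culture adjusted to 0.7% parasitemia and 2% haematocrit in serum (5%)/albumax (0.5%)-supplemented RPMI-Hepes.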
Compound `CCC1(CC)CC(=O)N(C2c3cc(C(=O)N[C@@H]4c5ccccc5OC(C)(C)[C@H]4O)ccc3CC2OC)C(=N)N1` (single isomer, unassigned) [Example 251A] gave a 50% effective concentration (EC50) of 0.4 nM.

In turn, `CCC1(CC)C[C@@H](N2C(=N)NC(C)(C)CC2=O)c2cc(C(=O)N[C@@H]3c4ccccc4CC3(C)O)ccc2O1` (single isomer, unassigned) [Example 55B] yielded an EC50 of 83.1 nM. Compared with the last compound, the EC50 is about 210-fold higher.

The compound `COCC1(C)Oc2ccc(C(=O)N[C@H]3CC(C)(C)Oc4ccccc43)cc2C1N1C(=N)NC(C)(C)CC1=O` (single isomer, unassigned) [Example 214A] displayed a concentration giving a half-maximal response (EC50) of 8.2 nM.

As for `CCC1(CC)CC(=O)N([C@@H]2CCOc3ccc(C(=O)NC4c5ccccc5CC4(O)C(F)(F)F)cc32)C(=N)N1` (single isomer, unassigned) [Example 272A], the concentration giving a half-maximal response (EC50) turned out to be 62.5 nM. `CCC1(CC)CC(=O)N([C@@H]2CC(COC)Oc3ccc(C(=O)N[C@H]4CC(C)(C)Oc5ccccc54)cc32)C(=N)N1` (single isomer, unassigned) [Example 16A] showed a concentration for a half-maximal effect (EC50) of 0.6 nM. Turning to `CCC1(CC)CC(=O)N([C@@H]2CCOc3ccc(C(=O)NC4c5ccccc5OCC4O)cc32)C(=N)N1` (single isomer, unassigned) [Example 8D], the EC50 worked out at 86 nM.

`CC[C@]1(C)CC(=O)N([C@@H]2CCOc3ccc(C(=O)NC4c5cc(F)ccc5OCC4(C)O)cc32)C(=N)N1` (single isomer, unassigned) [Example 190A] had a concentration giving a half-maximal response (EC50) of 261 nM. In the case of `CCC1(CC)CC(=O)N([C@@H]2CC(C)(C)Oc3ccc(C(=O)N[C@@H]4c5ccccc5CC4(C)O)cc32)C(=N)N1` (single isomer, unassigned) [Example 42A], it took 1 nM to reach a half-maximal effect (EC50).

The test is the same for the next values; noted with them: Plasmodium falciparum, Erythrocyte, 72 h, 0.7% rings, 2% haematocrit, 72 hours at 37° C., LDH readout of parasite growth.
As for `CC1(C)CC(=O)N([C@@H]2CCOc3ccc(C(=O)N[C@@H]4c5ccccc5OC(C)(C)[C@@]4(C)O)cc32)C(=N)N1` [Example 172, (4R)-N-[(3S,4R)-3-hydroxy-2,2,3-trimethyl-chroman-4-yl]-4-(2-imino-4,4-dimethyl-6-oxo-hexahydropyrimidin-1-yl)chromane-6-carboxamide], the concentration giving a half-maximal response (EC50) came to 0.9 nM. This lies in the sub-nanomolar range. Take `CC1(C)CC(=O)N(C2CCS(=O)(=O)c3ccc(C(=O)N[C@@H]4c5ccccc5C[C@]4(C)O)cc32)C(=N)N1` (stereo partly drawn) [Example 187, N-[(1R,2S)-2-hydroxy-2-methyl-indan-1-yl]-4-(2-imino-4,4-dimethyl-6-oxo-hexahydropyrimidin-1-yl)-1,1-dioxo-3,4-dihydro-2H-thiochromane-6-carboxamide]: a half-maximal response (EC50) required 66.7 nM. Compared with the last compound, the EC50 is about 74-fold higher.

The compound `CC[C@]1(C)CC(=O)N([C@H]2c3cc(C(=O)N[C@@H]4c5ccccc5OC(C)(C)[C@H]4O)ccc3C[C@@H]2C)C(=N)N1` [Example 169, (2S,3R)-3-[(4R)-4-ethyl-2-imino-4-methyl-6-oxo-hexahydropyrimidin-1-yl]-N-[(3S,4R)-3-hydroxy-2,2-dimethyl-chroman-4-yl]-2-methyl-indane-5-carboxamide] registered an EC50 of 0.3 nM. This EC50 is about 220-fold lower than that of the compound before. The same measure, in the same setting: the result for `CC1(C)CC(=O)N([C@@H]2CC(C)(C)Oc3ccc(C(=O)N[C@@H]4c5ccccc5C[C@H]4O)cc32)C(=N)N1` [Example 48A, (R)-N-((lR,2R)-2-hydroxy-2,3-dihydro-1H-inden-l-yl)-4-(2-imino-4,4-dimethyl-6-oxotetrahydropyrimidin-1(2H)-yl)-2,2-dimethylchromane-6-carboxamide] reads 37.5 nM; that for `CC1(C)CC(=O)N([C@@H]2CCOc3ccc(C(=O)N[C@H]4c5ccccc5OC(C)(C)[C@]4(C)O)cc32)C(=N)N1` [Example 184, (4R)-N-[(3R,4S)-3-hydroxy-2,2,3-trimethyl-chroman-4-yl]-4-(2-imino-4,4-dimethyl-6-oxo-hexahydropyrimidin-1-yl)chromane-6-carboxamide], 105 nM; that for `CCC1(CC)CC(=O)N([C@@H]2CCCOc3ccc(C(=O)N[C@@H]4c5ccccc5OC(C)(C)[C@H]4O)cc32)C(=N)N1` [Example 248, (5R)-5-(4,4-diethyl-2-imino-6-oxo-hexahydropyrimidin-1-yl)-N-[(3S,4R)-3-hydroxy-2,2-dimethyl-chroman-4-yl]-2,3,4,5-tetrahydro-1-benzoxepine-7-carboxamide], 0.8 nM.

In turn, `CC(C)[C@]1(C)CC(=O)N([C@@H]2CC(C)(C)Oc3ccc(C(=O)N[C@@H]4c5ccccc5C[C@H]4O)cc32)C(=N)N1` [Example 39A, (R)-N-((1R,2R)-2-hydroxy-2,3-dihydro-1H-inden-l-yl)-4-((S)-2-imino-4-isopropyl-4-methyl-6-oxotetrahydropyrimidin-1(2H)-yl)-2,2-dimethylchromane-6-carboxamide] had an EC50 of 29.9 nM. The compound `CC1(C)CC(=O)N([C@@H]2CC(C)(C)c3ccc(C(=O)N[C@@H]4c5ccccc5OC[C@@]4(C)O)cc32)C(=N)N1` [Example 124, (3R)-N-[(3S,4R)-3-hydroxy-3-methyl-chroman-4-yl]-3-(2-imino-4,4-dimethyl-6-oxo-hexahydropyrimidin-1-yl)-1,1-dimethyl-indane-5-carboxamide] came in with a concentration for a half-maximal effect (EC50) of 57.5 nM. Take `CCC1(CC)CC(=O)N([C@H]2c3cc(C(=O)N[C@@H]4c5ccccc5OC[C@@]4(C)O)ccc3OC[C@H]2COC)C(=N)N1` [Example 287, (3R,4R)-4-(4,4-diethyl-2-imino-6-oxo-hexahydropyrimidin-1-yl)-N-[(3S,4R)-3-hydroxy-3-methyl-chroman-4-yl]-3-(methoxymethyl)chromane-6-carboxamide]: a half-maximal response (EC50) required 1.9 nM. The same measure, in the same setting: the result for `CCC1(CC)CC(=O)N([C@@H]2CCOc3ccc(C(=O)N[C@H]4c5cc(F)ccc5C[C@@H]4O)cc32)C(=N)N1` [Example 147, (4R)-4-(4,4-diethyl-2-imino-6-oxo-hexahydropyrimidin-1-yl)-N-[(1S,2S)-6-fluoro-2-hydroxy-indan-1-yl]chromane-6-carboxamide] reads 160 nM; that for `CCC1(CC)CC(=O)N([C@@H]2CCOc3ccc(C(=O)N[C@@H]4c5cc(F)ccc5C[C@H]4O)cc32)C(=N)N1` [Example 148, (4R)-4-(4,4-diethyl-2-imino-6-oxo-hexahydropyrimidin-1-yl)-N-[(1R,2R)-6-fluoro-2-hydroxy-indan-1-yl]chromane-6-carboxamide], 2.7 nM; that for `CC1(C)CC(=O)N([C@@H]2CCOc3ccc(C(=O)N[C@@H]4c5cc(F)ccc5OC[C@H]4O)cc32)C(=N)N1` [Example 112, (4R)-N-[(3S,4R)-6-fluoro-3-hydroxy-chroman-4-yl]-4-(2-imino-4,4-dimethyl-6-oxo-hexahydropyrimidin-1-yl)chromane-6-carboxamide], 11.4 nM. Same read-out and setting: the result for `CC(C)[C@]1(C)CC(=O)N([C@@H]2CC(C)(C)Oc3ccc(C(=O)N[C@@H]4c5ccccc5OC(C)(C)[C@H]4O)cc32)C(=N)N1` [Example 38A, (R)-N-((3 S,4R)-3-hydroxy-2,2-dimethylchroman-4-yl)-4-((S)-2-imino-4-isopropyl-4-methyl-6-oxotetrahydropyrimidin-1(2H)-yl)-2,2-dimethylchromane-6-carboxamide] reads 2.8 nM; that for `CC1(C)CC(=O)N([C@H]2CCS(=O)(=O)c3ccc(C(=O)N[C@H]4CC(C)(C)Oc5ccccc54)cc32)C(=N)N1` [Example 221, (4S)-N-[(4S)-2,2-dimethylchroman-4-yl]-4-(2-imino-4,4-dimethyl-6-oxo-hexahydropyrimidin-1-yl)-1,1-dioxo-3,4-dihydro-2H-thiochromene-6-carboxamide], 190 nM; that for `CCC1(CC)CC(=O)N(C2c3cc(C(=O)N[C@@H]4c5ccccc5C[C@]4(C)O)ccc3OCC2OC)C(=N)N1` (stereo partly drawn) [Example 213, 4-(4,4-diethyl-2-imino-6-oxo-hexahydropyrimidin-1-yl)-N-[(1R,2S)-2-hydroxy-2-methyl-indan-1-yl]-3-methoxy-chromane-6-carboxamide], 9 nM.

Compound `CCC1(CC)CC(=O)N([C@@H]2C[C@@H](COCCOCCOCCN)Oc3ccc(C(=O)N[C@H]4CC(C)(C)Oc5ccccc54)cc32)C(=N)N1` [Example 310, (2S,4R)-2-[2-[2-(2-aminoethoxy)ethoxy]ethoxymethyl]-4-(4,4-diethyl-2-imino-6-oxo-hexahydropyrimidin-1-yl)-N-[(4S)-2,2-dimethylchroman-4-yl]chromane-6-carboxamide] returned an EC50 of 211 nM. Against the preceding compound, the EC50 is about 23-fold higher. Consider `CC[C@]1(C)CC(=O)N(C2c3cc(C(=O)N[C@@H]4c5ccccc5C[C@H]4O)ccc3OCC2OC)C(=N)N1` (stereo partly drawn) [Example 145, 4-[(4R)-4-ethyl-2-imino-4-methyl-6-oxo-hexahydropyrimidin-1-yl]-N-[(1R,2R)-2-hydroxyindan-1-yl]-3-methoxy-chromane-6-carboxamide], for which the response was half-maximal at 40.8 nM (EC50). Compared with the last compound, the EC50 is about 5.2-fold lower. For the compound `CC1(C)CC(=O)N([C@@H]2CCS(=O)(=O)c3ccc(C(=O)N[C@H]4C[C@H](C(F)(F)F)Oc5ccccc54)cc32)C(=N)N1` [Example 293, (4R)-4-(2-imino-4,4-dimethyl-6-oxo-hexahydropyrimidin-1-yl)-1,1-dioxo-N-[(2R,4S)-2-(trifluoromethyl)chroman-4-yl]-3,4-dihydro-2H-thiochromene-6-carboxamide], the EC50 amounted to 2.8 nM. This EC50 is about 15-fold lower than that of the compound before. Compound `CCC1(CC)CC(=O)N(C2CCOc3ccc(C(=O)N[C@@H]4c5ccccc5OC(C)(C)[C@H]4O)cc32)C(=N)N1` (stereo partly drawn) [Example 2A, 4-(4,4-diethyl-2-imino-6-oxotetrahydropyrimidin-1(2H)-yl)-N-((3S,4R)-3-hydroxy-2,2-dimethylchroman-4-yl)chroman-6-carboxamide] came in with an EC50 of 0.5 nM. `C[C@H]1Cc2ccc(C(=O)N[C@@H]3c4ccccc4OC(C)(C)[C@H]3O)cc2[C@H]1N1C(=N)NC(C)(C)CC1=O` [Example 137, (2S,3S)-N-[(3S,4R)-3-hydroxy-2,2-dimethyl-chroman-4-yl]-3-(2-imino-4,4-dimethyl-6-oxo-hexahydropyrimidin-1-yl)-2-methyl-indane-5-carboxamide] gave an EC50 of 239 nM.
